Data reported in patent publication US20260070917A1, “CYCLIN DEPENDENT KINASE DEGRADERS AND METHODS OF USE THEREOF” (Differentiated Therapeutics Inc, priority 2023, published 2026).

What was measured:
Type in all cases: cell-based
CDK2 = target: T1, CDK2 (Homo sapiens, UniProt P24941); assay: HiBit Assay Protocol for CDK2 (HIBIT protein quantification, degradation); conditions: HEK293-CDK2-Hibit cells, compound treatment for 6 hours; for DC50: ABS DC50
T1 construct: host or cells: HEK293-CDK2-Hibit
Procedure: HiBit Assay Protocol for CDK2
• 1. The culture medium for HEK293-CDK2-Hibit cells was prepared using DMEM with 10% FBS. • 2. Cells were cultivated in T-75 flasks in a cell culture incubator set at 37° C., 5% CO2, 95% relative humidity. Cells were allowed to reach 80-90% confluence before detaching and splitting. • 3. Cultivated cells were rinsed in T-75 flasks with 5 mL PBS. Aspirate off Added was 1.5 mL trypsin, and the cells were incubated at 37° C. for approximately 5 minutes or until the cells detached and floated. • 4. Trypsin was inactivated by adding excess serum containing medium. • 5. Cells were harvested from flask into cell culture medium and then the cell number was counted. HEK293-CDK2-Hibit cells were seeded into 384-well plate (cell density: 1.6×10^5 cells/well/50 uL medium) in DMEM medium according to the plate map below and incubated overnight at 37° C. and 5% CO2. • Note: Cell Cultured Medium: 90% DMEM+10% FBS+1% Penicillin-Streptomycin Liquid
(§1) • 1. Test compounds were dissolved at 10 mM DMS stock solution. 45 uL of stock solution was transferred to a 384 pp-plate. A 3-fold, 10-point dilution was performed via transferring 15 uL compound into 30 uL DMSO by using TECAN liquid handler. • 2. The plates were spinned at room temperature at 1,000 RPM for 1 minute. • 3. 50 nL of diluted compound was transferred from compound source plate into the cell plate by Echo. • 4. After compound treatment for 6 hours, the plate was removed from incubators and equilibrated at room temperature for 15 minutes. The HiBit reagent was prepared, consisting of the following ratios: 10 mL of Nano-Glo®-HiBiT Lytic Buffer, 200 μL of Nano-Glo®-HiBiT Lytic Substrate and 100 uL of LgBiT Protein, mixed thoroughly. 20 μL of HiBit reagent was added into each well and the plates were spinned at room temperature at 1,000 RPM for 1 minute to be detected. Then the plates were shaken at 600 RPM at room temperature for 20 minutes, and read by EnVision. • 5. The inhibition activity was calculated following the formula below:
(§2) [formula] • Note: Where HC is obtained from cells treated with […] only; LC is obtained from culture medium only. • 6. ABS DC50 was calculated by fitting the Curve using Xlfit (v5.3.1.3), equation 201: […]

CCNE1 = target: T2, CCNE1 (Homo sapiens, UniProt P24864); assay: HiBit Assay Protocol for CCNE1 (HIBIT protein quantification, degradation); conditions: HEK293-CCNE1-Hibit cells, compound treatment for 6 hours
T2 construct: host or cells: HEK293-CCNE1-Hibit
Procedure: HiBit Assay Protocol for CCNE1
• 1. The culture medium for HEK293-CCNE1-Hibit cell was prepared using EMEM with […]. • 2. Cells were cultivated in T-75 flasks in a cell culture incubator set at 37° C., 5% CO2, 95% relative humidity. Cells were allowed to reach 80-90% confluence before detaching and splitting. • 3. Cultivated cells were rinsed in T-75 flasks with 5 mL PBS. Aspirate off Added was 1.5 mL trypsin, and the cells were incubated at 37° C. for approximately 5 minutes or until the cells detached and floated. • 4. Trypsin was inactivated by adding excess serum containing medium. • 5. Cells were harvested from flask into cell culture medium and then the cell number was counted. HEK293-CCNE1-Hibit cell were seeded into 384-well plate (cell density: 1.6×10^5 cells/well/50 uL medium) in EMEM medium according to the plate map below and incubated overnight at 37° C. and […]. • Note: Cell Cultured Medium: 90% EMEM+10% FBS+1% Penicillin-Streptomycin Liquid
as §1, with “mM DMSO” for “mM DMS”, “45 μL” for “45 uL”, “100 μL” for “100 uL”, “Protein, mix” for “Protein, mixed”
as §2

CDK9 = target: T3, CDK9 (Homo sapiens, UniProt P50750); assay: HiBit Assay Protocol for CDK9 (HIBIT protein quantification, degradation); conditions: HEK293-CDK9-Hibit cells, compound treatment for 6 hours; for Dmax: 6 h, read-out: CDK9 HIBIT Protein Quantification Maximum; for DC50: ABS DC50
T3 construct: host or cells: HEK293-CDK9-Hibit
Procedure: HiBit Assay Protocol for CDK9
• 1. The culture medium for HEK293-CDK9-Hibit cell was prepared using DMEM with 10% FBS. • 2. Cells were cultivated in T-75 flasks in a cell culture incubator set at 37° C., 5% CO2, 95% relative humidity. Cells were allowed to reach 80-90% confluence before detaching and splitting. • 3. Cultivated cells were rinsed in T-75 flasks with 5 mL PBS. Aspirated off. Added 1.5 mL trypsin, and incubated the cells at 37° C. for approximately 5 minutes or until the cells detached and floated. • 4. Trypsin was inactivated by adding excess serum containing medium. • 5. Cells were harvested from flask into cell culture medium and then the cell number was counted. HEK293-CDK9-Hibit cells were seeded into 384-well plate (cell density: 1.6×10^5 cells/well/50 uL medium) in DMEM medium according to the plate map below and were incubated overnight at 37° C. and 5% CO2. • Note: Cell Cultured Medium: 90% DMEM+10% FBS+1% Penicillin-Streptomycin Liquid
• 1. Test compounds were dissolved at 3 mM DMSO stock solution. Transferred 45 uL of stock solution to a 384 pp-plate. Perform 3-fold, 10-point dilution via transferring 15 uL compound into 30 uL DMSO by using TECAN liquid handler. • 2. The plates were spinned at room temperature at 1,000 RPM for 1 minute. • 3. Transferred 50 nL of diluted compound from compound source plate into the cell plate by Echo. • 4. After compound treatment for 6 hours, removed the plate from incubators and equilibrated at room temperature for 15 minutes. Prepared the HiBit reagent consists of the following ratios: 10 mL of Nano-Glo®-HiBiT Lytic Buffer, 200 uL of Nano-Glo®-HiBiT Lytic Substrate and 100 uL of LgBiT Protein, mixed thoroughly. Added 20 uL of HiBit reagent into each well and spinned the plates at room temperature at 1,000 RPM for 1 minute to be detected. Plates were then shaken at 600 RPM at room temperature for 20 minutes, and read by EnVision. • 5. The inhibition activity was calculated following the formula below:
[formula] • Note: Where HC was obtained from cells treated with 0.1% DMSO only; LC was obtained from culture medium only. • 6. The ABS DC50 was calculated by fitting the Curve using Xlfit (v5.3.1.3), equation 201: […]

T2 sequence (P24864 whole entry): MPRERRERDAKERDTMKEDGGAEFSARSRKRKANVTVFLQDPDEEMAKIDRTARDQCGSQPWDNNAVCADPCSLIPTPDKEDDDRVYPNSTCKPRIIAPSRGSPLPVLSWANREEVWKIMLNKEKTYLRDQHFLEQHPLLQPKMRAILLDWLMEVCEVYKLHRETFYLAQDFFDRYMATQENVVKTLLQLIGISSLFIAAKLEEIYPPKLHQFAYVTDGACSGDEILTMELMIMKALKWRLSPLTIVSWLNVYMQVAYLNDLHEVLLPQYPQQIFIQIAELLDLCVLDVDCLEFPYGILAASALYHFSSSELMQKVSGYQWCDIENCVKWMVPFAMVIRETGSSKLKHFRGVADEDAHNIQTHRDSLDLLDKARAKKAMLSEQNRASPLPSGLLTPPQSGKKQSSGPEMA
T3 sequence (P50750 whole entry): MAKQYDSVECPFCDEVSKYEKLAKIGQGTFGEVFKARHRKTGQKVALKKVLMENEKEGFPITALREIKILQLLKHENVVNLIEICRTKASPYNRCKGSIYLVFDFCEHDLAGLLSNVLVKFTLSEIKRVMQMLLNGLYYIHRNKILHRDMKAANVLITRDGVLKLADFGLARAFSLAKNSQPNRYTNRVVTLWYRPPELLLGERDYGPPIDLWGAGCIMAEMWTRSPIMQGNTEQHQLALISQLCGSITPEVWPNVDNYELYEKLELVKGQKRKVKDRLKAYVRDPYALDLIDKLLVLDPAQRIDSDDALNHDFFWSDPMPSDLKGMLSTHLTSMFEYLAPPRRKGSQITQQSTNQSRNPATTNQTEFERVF

| Compound | CDK2 HIBIT Protein Quantification Maximum (CDK2) [%] | DC50 (CDK2) [nM] | CCNE1 HIBIT Protein Quantification Maximum (CCNE1) [%] | Dmax (CDK9) [%] | DC50 (CDK9) [nM] |
| --- | --- | --- | --- | --- | --- |
| CC1CCCC1N1C(=O)C2(CC2)c2cnc(NC3CCN(S(=O)(=O)N4CC5(CCCN(C(=O)CCc6cccc7c6n(C)c(=O)n7C6CCC(=O)NC6=O)C5)C4)CC3)nc21 (stereo not drawn) [Compound 18] | 63 | 12 | 20 | 5 | – |
| CC1CCCC1N1C(=O)C2(CC2)c2cnc(NC3CCN(S(=O)(=O)N4CC5(CN(C(=O)CCc6cccc7c6n(C)c(=O)n7C6CCC(=O)NC6=O)C5)C4)CC3)nc21 (stereo not drawn) [Compound 19] | 19 | – | 26 | 25 | – |
| CC1CCCC1N1C(=O)C2(CC2)c2cnc(NC3CCN(S(=O)(=O)N4CC5(CCN(C(=O)CCc6cccc7c6n(C)c(=O)n7C6CCC(=O)NC6=O)CC5)C4)CC3)nc21 (stereo not drawn) [Compound 20] | 46 | – | 29 | 71 | 86.3 |
| CC1CCCC1N1C(=O)C2(CC2)c2cnc(NC3CCN(S(=O)(=O)N4CCC5(CCN(C(=O)CCc6cccc7c6n(C)c(=O)n7C6CCC(=O)NC6=O)C5)C4)CC3)nc21 (stereo not drawn) [Compound 21] | 54 | 41 | 28 | 28 | – |
| CC1CCCC1N1C(=O)C2(CC2)c2cnc(NC3CCN(S(=O)(=O)N4CC(N(C)C(=O)CCCc5cccc6c5n(C)c(=O)n6C5CCC(=O)NC5=O)C4)CC3)nc21 (stereo not drawn) [Compound 22, 4-(1-(2,6-dioxopiperidin-3-yl)-3-methyl-2-oxo-2,3-dihydro-1H-benzo[d]imidazol-4-yl)-N-methyl-N-(1-((4-((7′-(2-methylcyclopentyl)-6′-oxo-6′,7′-dihydrospiro[cyclopropane-1,5′-pyrrolo[2,3-d]pyrimidin]-2′-yl)amino)piperidin-1-yl)sulfonyl)azetidin-3-yl)butanamide] | 57 | 44 | 18 | 35 | – |
| CC1CCCC1N1C(=O)C2(CC2)c2cnc(NC3CCN(S(=O)(=O)N4CC5CN(C(=O)CCCc6cccc7c6n(C)c(=O)n7C6CCC(=O)NC6=O)CC5C4)CC3)nc21 (stereo not drawn) [Compound 23] | 64 | 98 | 20 | 49 | – |
| CC1CCCC1N1C(=O)C2(CC2)c2cnc(NC3CCN(S(=O)(=O)N4CCCC45CCN(C(=O)CCCc4cccc6c4n(C)c(=O)n6C4CCC(=O)NC4=O)C5)CC3)nc21 (stereo not drawn) [Compound 24] | 41 | – | 21 | -1 | – |
| CC1CCCC1N1C(=O)C2(CC2)c2cnc(NC3CCN(S(=O)(=O)N4CCC5(CCCN5C(=O)CCCc5cccc6c5n(C)c(=O)n6C5CCC(=O)NC5=O)C4)CC3)nc21 (stereo not drawn) [Compound 25] | 29 | – | 25 | 15 | – |
| CC1CCCC1N1C(=O)C2(CC2)c2cnc(NC3CCN(S(=O)(=O)N4CC5(CCCCN5C(=O)CCCc5cccc6c5n(C)c(=O)n6C5CCC(=O)NC5=O)C4)CC3)nc21 (stereo not drawn) [Compound 26] | 42 | – | 8 | 9 | – |
| CC1CCCC1N1C(=O)C2(CC2)c2cnc(NC3CCN(S(=O)(=O)N4CCN(C(=O)CCCc5cccc6c5n(C)c(=O)n6C5CCC(=O)NC5=O)CC4)CC3)nc21 (stereo not drawn) [Compound 27] | 57 | 19 | 27 | 49 | – |
| CC1CCCC1N1C(=O)C2(CC2)c2cnc(NC3CCN(S(=O)(=O)N4CC5(CCCN(C(=O)CCCc6cccc7c6n(C)c(=O)n7C6CCC(=O)NC6=O)C5)C4)CC3)nc21 (stereo not drawn) [Compound 28] | 42 | – | 8 | 8 | – |
| CC1CCCC1N1C(=O)C2(CC2)c2cnc(NC3CCN(S(=O)(=O)N4CC5(CN(C(=O)CCCc6cccc7c6n(C)c(=O)n7C6CCC(=O)NC6=O)C5)C4)CC3)nc21 (stereo not drawn) [Compound 29] | 76 | 35 | 47 | 57 | 95.8 |
| CC1CCCC1N1C(=O)C2(CC2)c2cnc(NC3CCN(S(=O)(=O)N4CC5(CCN(C(=O)CCCc6cccc7c6n(C)c(=O)n7C6CCC(=O)NC6=O)CC5)C4)CC3)nc21 (stereo not drawn) [Compound 30] | 72 | 11 | 37 | 75 | 17.6 |
| CC1CCCC1N1C(=O)C2(CC2)c2cnc(NC3CCN(S(=O)(=O)N4CC5C4CCN5C(=O)CCCc4cccc5c4n(C)c(=O)n5C4CCC(=O)NC4=O)CC3)nc21 (stereo not drawn) [Compound 31] | 62 | 17 | 14 | 15 | – |
| CC1CCCC1N1C(=O)C2(CC2)c2cnc(NC3CCN(S(=O)(=O)N4CCC5(CCN(C(=O)CCCc6cccc7c6n(C)c(=O)n7C6CCC(=O)NC6=O)C5)C4)CC3)nc21 (stereo not drawn) [Compound 32] | 59 | 86 | 22 | 41 | – |
